Common to all, as to format: cell-based
Test [1] has as its system Wild-type (wt) Streptococcus gordonii. Put plainly: Quantitative culture (colony counts) of drug-exposed S. gordonii cultures. As to the method:
(§1) 1) Strains and growth conditions: Wild-type (wt) and penicillin tolerant (Tol) Streptococcus gordonii (I. Caldelari et al., Antimicrobial Agents and Chemotherapy, 2000, 44(10):2802-2810) were grown at 37 degrees Celsius, either in brain heart infusion broth (BHI) without aeration, or on Columbia agar supplemented with 3% blood. Quantitative culture was performed by plating serial dilutions of bacterial cultures taken at various time points on penicillinase-containing blood-agar plates. Colonies counts were determined after incubation for […] at 37° C.

For test [2] the test system is unchanged. Put plainly: RT-qPCR of 16S rRNA after drug exposure. To be noted: reverse transcription of 16S rRNA from total RNA, then qPCR. As to the method:
as §1
(§2) 3) Extraction and purification of bacterial DNA and RNA: (i) Total DNA from 3 ml of culture samples was extracted and purified using the DNeasy Tissue Kit according to the instructions of the manufacturer (Qiagen). […] Total RNA concentrations were determined by spectrophotometry and quality checked on 1% MOPS-agarose gels. […]
(§3) 4) Quantitative Real-Time PCR was performed using the following probe FAM-5′-TTGCACCACTACCAGATGGAC CTGC-3′-TAMRA (SEQ ID NO:3) according to the instruction of the manufacturer (Perkin-Elmer) on Sequence Detection System 5700 (Perkin-Elmer) in a total volume of 50 μl 1×PCR buffer (Gibco) containing 25 pmoles of each primer, […] of fluorescent probe, […] each dNTP and 1.5 UI of Taq DNA polymerase (Gibco). […]

For test [3], the system named is penicillin tolerant (Tol) Streptococcus gordonii. Description: RT-qPCR of 16S rRNA after drug exposure, tolerant mutant control. To be noted: same system, Tol as control. As to the method: as §1, §2, §3

A value given as a limit tells only on which side of the number the result lay.

For the substance penicillin, the loss of viability in test [1] (after addition of penicillin, up to 50 hours) was 5 log CFU/ml; in test [1] (cultures dramatically killed with penicillin (qualitative PCR experiment)), over 3 log CFU/ml. Further, in test [2], the “16S rRNA amplicons (viability marker) during drug-induced killing” value is “decreased proportionally to cell death”. The “ribosomal RNA amplicons in penicillin-tolerant mutant Tol” value in test [3] is “remained stable and proportional to viable bacteria”.

The values are drawn from US20040110247A1, “New molecular tools for the rapid assessment of the presence and viability of microorganisms and methods of use” (priority 2002, published 2004).
